Assays:
CGRP receptor [1] = biological target: T1, CGRP receptor (Homo sapiens, UniProt O60894+Q16602); test: Inhibition of CGRP signaling pathway (cAMP, HTRF) in CHO-K1 cells expressing human CGRP receptors; format: cell-based; design: host or cells: CHO-K1; conditions: [α-CGRP]=10 ng/ml; increase in cAMP levels; read-out: IC50 of the inhibitory effect on the CGRP signaling pathway in CHO-K1 cells expressing human CGRP receptors
Experimental: (§1) The inhibitory effect of the CGRP signaling pathway in vitro is evaluated by measuring the cAMP level. The principle is that after CGRP binds to the CGRP receptor, the CGRP signaling pathway is activated, inducing an increase in the cAMP level. […] The specific experimental method is as follows:
CHO-K1 cells expressing human CGRP receptor (CGRPR/CHO-K1, PerkinElmer, ES-420-C) were cultured in F12K+10% FBS+400 μg/mL G418+10 μg/mL Blasticidin medium, and the cells were collected in the logarithmic growth phase. According to the instructions of the kit, the cells were resuspended in Stimulation Buffer comprising 0.5 mM IBMX, and 5 μL of the cell suspension was added to each well of a 96-well microplate (Cisbio, 66PL96025) at a cell density of 15,000 cells/well. 2.5 μL of gradient diluted compound solution was added to each well. After incubation at 37° C. for 30 minutes, 2.5 μL of 40 ng/ml human α-CGRP (Bachem, H-1470,0500) diluted in Stimulation Buffer comprising 0.5 mM IBMX was added to each well to a final concentration of 10 ng/ml. After incubation at 37° C. for 30 minutes, 5 μL of Anti-cAMP-Cryptate solution and 5 μL of cAMP-d2 solution were added to each well. After incubation at room temperature for 60 minutes, the HTRF signal was read using a microplate reader (Molecular Devices). Graphpad Prism was used to calculate the IC50 value of the compound's inhibitory effect on the increase in cAMP levels based on the compound concentration and HTRF signal.

CGRP receptor [2] = biological target: T1, CGRP receptor; test: Inhibition of CGRP signaling pathway (cAMP, HTRF) in SK-N-MC cells; format: cell-based; design: SK-N-MC (ATCC, HTB-10) cells endogenously expressing CGRP receptor; host or cells: SK-N-MC; conditions: [α-CGRP]=10 ng/mL; increase in cAMP levels; read-out: IC50 of the inhibitory effect on the CGRP signaling pathway in SK-N-MC cells
Experimental: as §1
cAMP was determined using the CAMP-GS DYNAMIC KIT detection kit (Cisbio, 62AM4PEB).
SK-N-MC (ATCC, HTB-10) cells endogenously expressing CGRP receptor were cultured in EMEM+10% FBS medium and the cells were collected during the logarithmic growth phase. According to the instructions of the kit, the cells were resuspended in Stimulation Buffer comprising 0.5 mM IBMX, and 5 μL of the cell suspension was added to each well of a 96-well microplate (Cisbio, 66PL96025) at a cell density of 15,000 cells/well, 2.5 μL of gradient diluted compound solution was added to each well. After incubation at 37° C. for 30 minutes, 2.5 μL of 40 ng/ml human α-CGRP (Bachem, H-1470.0500) diluted in Stimulation Buffer comprising 0.5 mM IBMX was added to each well to a final concentration of 10 ng/ml. After incubation at 37° C. for 30 minutes, 5 μL of Anti-cAMP-Cryptate solution and 5 μL of cAMP-d2 solution were added to each well. After incubation at room temperature for 60 minutes, the HTRF signal was read using a microplate reader (Molecular Devices). Graphpad Prism was used to calculate the IC50 value of the compound's inhibitory effect on the increase in cAMP levels based on the compound concentration and HTRF signal.

CGRP receptor [3] = biological target: T1, CGRP receptor; test: Affinity for human CGRP receptor ([125I]h-CGRPα competition, CHO cell membranes); format: binding; design: host or cells: CHO-K1; conditions: 0.03 nM [125I]h-CGRPα; Cheng Prusoff; read-out: Ki of the affinity determination to human CGRP receptor
Experimental: The cell membrane homogenate of CHO cells expressing human CGRP receptor (comprising 16 μg of protein) was incubated with 0.03 nM [^125I]h-CGRPα and gradiently diluted test samples in buffer (50 mM Hepes-NaOH (pH 7.4), 10 mM MgCl2, 4 mM KCl, 10 mM […], 1 mM EDTA, 1 μM phosphorylation amide, 0.3% BSA and 0.04% bacitracin) at 22° C. for 90 minutes. A control group without the test sample was set up to obtain the highest binding signal of the experiment, and the non-specific binding of the experiment was determined by adding 1 μM non-isotope-labeled h-CGRPα to the control group. After the incubation, a glass fiber filter (GF/B, Packard) soaked with 0.3% PEI was placed in a 96-well cell collector (Unfilter, Packard), and the sample was quickly filtered under vacuum and rinsed several times with precooled buffer comprising 50 mM Tris-HCl and 150 mM NaCl. After the filter was dried, scintillation fluid (Microscint 0, Packard) was added and the radioactive signal value was measured using a scintillation counter (Topcount, Packard). The results are expressed as the percentage of inhibition of specific binding of the radioligand. Non-isotope labeled h-CGRPα was used as a standard sample as a control. The test samples and standard samples were tested at multiple concentrations to obtain a competition curve with [^125I]h-CGRPα, thereby calculating the IC50) 20 of each sample. The inhibition constant Ki was further calculated using the Cheng Prusoff equation: Ki=IC50/(1+L/KD), wherein L represents the concentration of [^125I]h-CGRPα in the system (0.03 nM), and KD represents the dissociation constant between [^125I]h-CGRPα and the human CORP receptor in the system (0.06 nM).

| Structure (SMILES) | IC50 (CGRP receptor [1]) [nM] | IC50 (CGRP receptor [2]) [nM] | other results |
| --- | --- | --- | --- |
| CC1C(c2c(F)ccc(F)c2F)CC(NC(=O)c2cc3c(o2)CCC2(C3)C(=O)Nc3ncccc32)C(=O)N1CC(F)(F)F (stereo not shown) [Example 1, N-(6-methyl-2-oxo-1-(2,2,2-trifluoroethyl)-5-(2,3,6-trifluorophenyl)piperidin-3-yl)-2′-oxo-1′,2′,6,7-tetrahydro-4H-spiro[benzofuran-5,3′-pyrrolo[2,3-b]pyridine]-2-carboxamide] | 106 |  |  |
| CC1C(c2c(F)ccc(F)c2F)CC(NC(=O)c2cc3c(s2)CCC2(C3)C(=O)Nc3ncccc32)C(=O)N1CC(F)(F)F (stereo not shown) [Example 2, N-(6-methyl-2-oxo-1-(2,2,2-trifluoroethyl)-5-(2,3,6-trifluorophenyl)piperidin-3-yl)-2′-oxo-1′,2′,6,7-tetrahydro-4H-spiro[benzo[b]thiophene-5,3′-pyrrolo[2,3-b]pyridine]-2-carboxamide] | 250 |  |  |
| CC1C(c2c(F)ccc(F)c2F)CC(NC(=O)c2cc3c(s2)CC2(C3)C(=O)Nc3ncccc32)C(=O)N1CC(F)(F)F (stereo not shown) [Example 3, N-(6-methyl-2-oxo-1-(2,2,2-trifluoroethyl)-5-(2,3,6-trifluorophenyl)piperidin-3-yl)-2′-oxo-1′,2′,4,6-tetrahydrospiro[cyclopenta[b]thiophene-5,3′-pyrrolo[2,3-b]pyridine]-2-carboxamide] | 64.7 |  |  |
| CC1C(c2c(F)ccc(F)c2F)CC(NC(=O)c2cc3c(o2)CC2(C3)C(=O)Nc3ncccc32)C(=O)N1CC(F)(F)F (stereo not shown) [Example 4, N-(6-methyl-2-oxo-1-(2,2,2-trifluoroethyl)-5-(2,3,6-trifluorophenyl)piperidin-3-yl)-2′-oxo-1′,2′,4,6-tetrahydrospiro[cyclopenta[b]furan-5,3′-pyrrolo[2,3-b]pyridine]-2-carboxamide] | 199 |  |  |
| C[C@@H]1[C@H](c2c(F)ccc(F)c2F)C[C@H](NC(=O)c2nc3c(s2)CC2(CC3)C(=O)Nc3ncccc32)C(=O)N1CC(F)(F)F (stereo partly drawn) [Example 9, N-((3S,5S,6R)-6-methyl-2-oxo-1-(2,2,2-trifluoroethyl)-5-(2,3,6-trifluorophenyl)piperidin-3-yl)-2′-oxo-1′,2′,4,7-tetrahydro-5H-spiro[benzo[d]thiazole-6,3′-pyrrolo[2,3-b]pyridine]-2-carboxamide] |  | > 100 |  |
| C[C@@H]1[C@H](c2c(F)ccc(F)c2F)C[C@H](NC(=O)c2cc3c([nH]2)CC2(C3)C(=O)Nc3ncccc32)C(=O)N1CC(F)(F)F (stereo partly drawn) [Example 10, N-((3S,5S,6R)-6-methyl-2-oxo-1-(2,2,2-trifluoroethyl)-5-(2,3,6-trifluorophenyl)piperidin-3-yl)-2′-oxo-1′,2′,4,6-tetrahydro-1H-spiro[cyclopenta[b]pyrrole-5,3′-pyrrolo[2,3-b]pyridine]-2-carboxamide] |  | 6.8 |  |
| C[C@@H]1[C@H](c2c(F)ccc(F)c2F)C[C@H](NC(=O)c2nc3c(s2)CC2(C3)C(=O)Nc3ncccc32)C(=O)N1CC(F)(F)F (stereo partly drawn) [Example 11, N-((3S,5S,6R)-6-methyl-2-oxo-1-(2,2,2-trifluoroethyl)-5-(2,3,6-trifluorophenyl)piperidin-3-yl)-2′-oxo-1′,2′,4,6-tetrahydrospiro[cyclopenta[d]thiazole-5,3′-pyrrolo[2,3-b]pyridine]-2-carboxamide] |  | 11 |  |
| C[C@@H]1[C@H](c2c(F)ccc(F)c2F)C[C@H](NC(=O)c2nc3c(o2)CCC2(C3)C(=O)Nc3ncccc32)C(=O)N1CC(F)(F)F (stereo partly drawn) [Example 12, N-((3S,5S,6R)-6-methyl-2-oxo-1-(2,2,2-trifluoroethyl)-5-(2,3,6-trifluorophenyl)piperidin-3-yl)-2′-oxo-1′,2′,6,7-tetrahydro-4H-spiro[benzo[d]oxazole-5, 3′-pyrrolo[2,3-b]pyridine]-2-carboxamide] |  | 53.6 |  |
| C[C@@H]1[C@H](c2c(F)ccc(F)c2F)C[C@H](NC(=O)c2cc3c([nH]2)CCC2(C3)C(=O)Nc3ncccc32)C(=O)N1CC(F)(F)F (stereo partly drawn) [Example 13, N-((3S,5S,6R)-6-methyl-2-oxo-1-(2,2,2-trifluoroethyl)-5-(2,3,6-trifluorophenyl)piperidin-3-yl)-2′-oxo-1,1′,2′,4,6,7-hexahydrospiro[indole-5,3′-pyrrolo[2,3-b]pyridine]-2-carboxamide] |  | 0.89 |  |
| C[C@@H]1[C@H](c2ccccc2)C[C@H](NC(=O)c2cnc3c(c2)C[C@@]2(C3)C(=O)Nc3ncccc32)C(=O)N1CC(F)(F)F [Ubrogepant, reference compound] |  |  | Ki (CGRP receptor [3]): 0.027 nM |

Source: US20250353860A1, “PIPERIDINE CARBOXAMIDE AZAINDANE DERIVATIVE, METHOD FOR PREPARING SAME, AND USE THEREOF” (BRISE PHARMACEUTICALS CO., LTD., priority 2022, published 2025)
